Legend:
Assay type in all cases: in vivo, Erysiphe graminis
powdery mildew in barley = assay: Control of powdery mildew on potted barley plants in growth chamber
Procedure: (§1) β Amionbutyric acid and component (b) fungicides were tested against fungi on potted plants, as follows:
(§2) 12-15 seeds were sown in a pot of 0.5 liter in a mixture of ground, sand, and Perlite in a ratio of 1;1;1. After two weeks in a growth chamber the plants were used for experimentation only when the first true leave appeared. Spraying was done until runoff; waiting in the growth chamber for 24 hours. Inoculations of the fungus was done via dusting the plants with plants already infected. The then dusted plants were incubated 7 to 10 days at 20° in a growth chamber with an exposure of 12 hours to light at an intensity of 7000-800 lucs. The results of the fungul growth was done via visual estimation (0 to 4) of the infected leaves. The existence of synergism between the active components was calculated according to the Abbott Equation. [formula]
(§3) a=% control b the β-arninobutyric acid.
(§4) b=% control by the second component.
(§5) and where the synergism factor. SF is calculated thusly [formula]

powdery mildew in wheat = assay: Control of powdery mildew on potted wheat plants in growth chamber; design: ED90: unit not given beside the values; settings: for Observed Control (%): wheat
Procedure: as §1, §2, §3, §4, §5

[1] = test system: powdery mildew in cucumber; assay: Control of powdery mildew on potted cucumber plants in growth chamber; settings: for Observed Control (%): cucumber
Procedure: as §1, §2, §3, §4, §5

CC(N)CC(=O)O (stereo not drawn) [β-Aminobutyric acid, β-aminobutyric acid]
Observed Control (%) (powdery mildew in barley; BABA 16 ppm alone (Table 3)): 0% | Observed Control (%) (powdery mildew in barley; BABA 62 ppm alone (Table 3)): 50% | Observed Control (%) (powdery mildew in barley; BABA 125 ppm alone (Table 1)): 14% | Observed Control (%) (powdery mildew in barley; BABA 250 ppm alone (Table 1)): 14% | Observed Control (%) (powdery mildew in barley; BABA 250 ppm alone (Table 3)): 38% | Observed Control (%) (powdery mildew in barley; BABA 500 ppm alone (Table 1)): 14% | Observed Control (%) (powdery mildew in barley; BABA 1000 ppm alone (Table 1)): 14% | Observed Control (%) (powdery mildew in barley; BABA 1000 ppm alone (Table 3)): 70% | ED90 (powdery mildew in wheat; wheat (Table 5)): 684 | ED90 (powdery mildew in wheat; wheat (Table 6)): 684 | ED90 (powdery mildew in wheat; wheat (Table 7)): 684 | Observed Control (%) (powdery mildew in wheat; BABA 16 ppm alone (Table 4)): 0% | Observed Control (%) (powdery mildew in wheat; BABA 62 ppm alone (Table 4)): 8% | Observed Control (%) (powdery mildew in wheat; BABA 125 ppm alone (Table 2)): 8% | Observed Control (%) (powdery mildew in wheat; BABA 125 ppm alone (Table 5)): 13% | Observed Control (%) (powdery mildew in wheat; BABA 125 ppm alone (Table 6)): 13% | Observed Control (%) (powdery mildew in wheat; BABA 125 ppm alone (Table 7)): 13% | Observed Control (%) (powdery mildew in wheat; BABA 250 ppm alone (Table 2)): 8% | Observed Control (%) (powdery mildew in wheat; BABA 250 ppm alone (Table 4)): 17% | Observed Control (%) (powdery mildew in wheat; BABA 250 ppm alone (Table 5)): 25% | Observed Control (%) (powdery mildew in wheat; BABA 250 ppm alone (Table 6)): 25% | Observed Control (%) (powdery mildew in wheat; BABA 250 ppm alone (Table 7)): 25% | Observed Control (%) (powdery mildew in wheat; BABA 500 ppm alone (Table 2)): 8% | Observed Control (%) (powdery mildew in wheat; BABA 500 ppm alone (Table 5)): 63% | Observed Control (%) (powdery mildew in wheat; BABA 500 ppm alone (Table 6)): 63% | Observed Control (%) (powdery mildew in wheat; BABA 500 ppm alone (Table 7)): 63% | Observed Control (%) (powdery mildew in wheat; BABA 1000 ppm alone (Table 2)): 17% | Observed Control (%) (powdery mildew in wheat; BABA 1000 ppm alone (Table 4)): 33% | Observed Control (%) (powdery mildew in wheat; BABA 1000 ppm alone (Table 5)): 100% | Observed Control (%) (powdery mildew in wheat; BABA 1000 ppm alone (Table 6)): 100% | Observed Control (%) (powdery mildew in wheat; BABA 1000 ppm alone (Table 7)): 100%

CCCC1COC(Cn2cncn2)(c2ccc(Cl)cc2Cl)O1 (stereo not shown) [Propiconazole, propiconazole]
Observed Control (%) (powdery mildew in barley; Propiconazole 0.5 ppm alone): 75% | Observed Control (%) (powdery mildew in barley; Propiconazole 1 ppm alone): 88% | Observed Control (%) (powdery mildew in barley; Propiconazole 2 ppm alone): 94% | Observed Control (%) (powdery mildew in wheat; Propiconazole 0.5 ppm alone): 25% | Observed Control (%) (powdery mildew in wheat; Propiconazole 1 ppm alone): 50% | Observed Control (%) (powdery mildew in wheat; Propiconazole 2 ppm alone): 83%

Fc1ccc([C@]2(Cn3cncn3)O[C@H]2c2ccccc2Cl)cc1 (racemic) [Epoxiconazole, epoxiconazole]
ED90 (powdery mildew in wheat; wheat (Table 6)): 0.5 | Observed Control (%) (powdery mildew in wheat; Epoxiconazole 0.15 ppm alone): 25% | Observed Control (%) (powdery mildew in wheat; Epoxiconazole 0.6 ppm alone): 98% | Observed Control (%) (powdery mildew in wheat; Epoxiconazole 2.5 ppm alone): 100% | Observed Control (%) (powdery mildew in wheat; Epoxiconazole 10 ppm alone): 100% | ED90 ([1]; cucumber (Table 9)): 5.5 | Observed Control (%) ([1]; Epoxiconazole 2.5 ppm alone): 60% | Observed Control (%) ([1]; Epoxiconazole 5 ppm alone): 96% | Observed Control (%) ([1]; Epoxiconazole 10 ppm alone): 96% | Observed Control (%) ([1]; Epoxiconazole 20 ppm alone): 100%

CC(C)(C)C(O)C(Oc1ccc(Cl)cc1)n1cncn1 (stereo not shown) [Triadimenol, triadimenol]
ED90 (powdery mildew in wheat; wheat (Table 7)): 1.0 | Observed Control (%) (powdery mildew in wheat; Triadimenol 0.15 ppm alone): 25% | Observed Control (%) (powdery mildew in wheat; Triadimenol 0.6 ppm alone): 98% | Observed Control (%) (powdery mildew in wheat; Triadimenol 2.5 ppm alone): 100% | Observed Control (%) (powdery mildew in wheat; Triadimenol 10 ppm alone): 100% | ED90 ([1]; cucumber (Table 10)): 9.4 | Observed Control (%) ([1]; Triadimenol 2.5 ppm alone): 60% | Observed Control (%) ([1]; Triadimenol 5 ppm alone): 88% | Observed Control (%) ([1]; Triadimenol 10 ppm alone): 96% | Observed Control (%) ([1]; Triadimenol 20 ppm alone): 96%

CCCN(CCOc1c(Cl)cc(Cl)cc1Cl)C(=O)n1ccnc1 [Prochloraz, prochloraz]
Observed Control (%) (powdery mildew in barley; Prochloraz 1.25 ppm alone): 43% | Observed Control (%) (powdery mildew in barley; Prochloraz 5 ppm alone): 67% | Observed Control (%) (powdery mildew in barley; Prochloraz 10 ppm alone): 74% | Observed Control (%) (powdery mildew in wheat; Prochloraz 1.25 ppm alone): 33% | Observed Control (%) (powdery mildew in wheat; Prochloraz 5 ppm alone): 42% | Observed Control (%) (powdery mildew in wheat; Prochloraz 10 ppm alone): 52%

CC(C)(C)C(O)(CCc1ccc(Cl)cc1)Cn1cncn1 (stereo not shown) [Tebuconazole, tebuconazole]
ED90 (powdery mildew in wheat; wheat (Table 5)): 1.0 | Observed Control (%) (powdery mildew in wheat; Tebuconazole 0.15 ppm alone): 25% | Observed Control (%) (powdery mildew in wheat; Tebuconazole 0.6 ppm alone): 63% | Observed Control (%) (powdery mildew in wheat; Tebuconazole 2.5 ppm alone): 100% | Observed Control (%) (powdery mildew in wheat; Tebuconazole 10 ppm alone): 100% | ED90 ([1]; cucumber (Table 8)): 14 | Observed Control (%) ([1]; Tebuconazole 2.5 ppm alone): 0% | Observed Control (%) ([1]; Tebuconazole 5 ppm alone): 80% | Observed Control (%) ([1]; Tebuconazole 10 ppm alone): 80% | Observed Control (%) ([1]; Tebuconazole 20 ppm alone): 92%
